Data from paper PMC3514116 (BMC Plant Biology, 2012).
Marks after values point to notes of the source that are not given here. Ends that are not written are not given here.

What was measured:
tobacco leaves = test: Phytotoxicity, tobacco leaf inoculation assay; type: in vivo, Nicotiana benthamiana; details: for Phytotoxicity at 150 μM (inoculation): lesion diameter: 100 μl of 150 μM peptide inoculated into tobacco leaf mesophyll, three days, mean and standard error, at least three inoculations
Description: Tobacco (Nicotiana benthamiana) plants were grown from seed in a heated glasshouse and used between 20 and 30 days old. One hundredμl chemically synthesized peptides at 50, 100, 150 or 250 μM were inoculated into the mesophylls of fully expanded tobacco leaves (previously wounded with a needle), using a syringe without needle, and plants were kept at standard glasshouse conditions for three days. Up to six independent inoculations were carried out in a single leaf, and at least three independent inoculations were performed per peptide and concentration, randomly distributed in different leaves and plants. Toxicity was measured as the lesion diameter.

rice Senia seeds = test: Phytotoxicity, rice germination assay; type: in vivo, Oryza sativa L.; details: for Phytotoxicity (germination): minimal peptide concentration causing significant alteration of shoot length: 12 Senia seeds per treatment germinated 7 days in 0, 8, 16, 32, 64 μM peptide, 28°C, one-way ANOVA; for Effect on rice seedling development at high concentrations: germination test, Senia seeds, 7 days, 125 and 250 μM also tested
Description: For each treatment, a total of 12 surface-sterilized Senia seeds were germinated in 500 μl water or peptide solution at the appropriate concentration (0, 8, 16, 32 and 64 μM) in a culture chamber (28 ± 1°C with a photoperiod of 16 h light / 8 h dark under fluorescent Sylvania Cool White lamps) for seven days. Seedling morphology was recorded and shoot length was measured.

[1] = test system: erythrocyte suspensions of fresh human blood; test: Hemolytic activity (hemoglobin release); type: cell-based; details: human erythrocytes 5% v/v, TRIS/NaCl pH 7.2, 150 μM peptide, 1 h 37°C, A540
Description: Hemoglobin release from erythrocyte suspensions of fresh human blood (5% v/v) was used to evaluate hemolytic activity of synthetic peptides. Briefly, aseptically collected blood (BD vacutainer K2E System with EDTA, Belliver Industrial State, Plymouth, UK) was centrifuged at 6,000 g for 5 min, washed with 10 mM TRIS, 150 mM NaCl, pH 7.2 and suspended in the same buffer. Fifty μl of peptide solutions at 300 μM were mixed with 50 μl aliquots of erythrocyte suspensions and incubated for 1h at 37 °C with shaking. After centrifugation, the supernatants were transferred to microplate wells with 80 μl H2O and the 540 nm absorbance was monitored with a Bioscreen plate reader. Hemolysis percentages were calculated relative to mellitin and TRIS buffer.

mice = details: cited from earlier work
[2] = test system: Dickeya chrysanthemi 1552-10-1 (Dc); test: In vitro growth inhibition (MIC), Dickeya chrysanthemi; details: 10^8 bacterial CFU/ml suspension in TSB, microtiter plate, 25°C 48 h, OD 600 nm; three replicates, two experimental replicates
Description: (§1) Peptides were solubilized in sterile Milli-Q H2O to a concentration of 1 mM and filter sterilized through a 0.22 μm pore filter. […] Bacterial strains were stored at −80°C in Luria Bertani (LB) broth with glycerol (20%). After 24 h (Ea, Pss and Dc) or 48 h (Xav) growth in LB agar at 25°C, bacterial colonies were scraped off the surface, suspended in sterile H2O and adjusted to 10^8 CFU/ml. The fungal strain was stored at 4°C in the particulate solid carrier perlite, on fresh potato dextrose agar (PDA). Fv cultures were prepared in potato dextrose broth (PDB) and incubated for one week at 25°C in the dark in a rotary shaker at 125 rpm. They were filtered through several layers of sterile cheesecloth to eliminate macroconidia and mycelial growth. The effluent was centrifuged at 8,000 rpm for 20 min at 4°C and the pellet was suspended in sterile water. Microconidia concentration was determined in a counting chamber.
(§2) Serial dilutions of synthetic peptides were prepared at 400, 200, 100, 50, 25, 12.5 and 6 μM. […] Microplates were incubated at 25°C for 48 h (bacterial strains) or 22°C for 6 days (Fv), and optical densities at 600 nm were recorded hourly (every two hours for Fv) after 20 s shaking. […]

[3] = test system: erythrocyte suspensions of fresh human blood; details: human erythrocytes 5% v/v, TRIS/NaCl pH 7.2, 1 h 37°C, A540, relative to mellitin; confidence interval for α = 0.05; cited from earlier work
[4] = test system: Xanthomonas axonopodis pv. vesicatoria 2133-2 (Xav); test: In vitro growth inhibition (MIC), Xanthomonas axonopodis pv. vesicatoria; details: 10^8 bacterial CFU/ml suspension in TSB, microtiter plate, 25°C 48 h, OD 600 nm; three replicates, two experimental replicates
Description: as §1, §2

[5] = test system: Pseudomonas syringae pv. syringae EPS94 (Pss); test: In vitro growth inhibition (MIC), Pseudomonas syringae pv. syringae; details: 10^8 bacterial CFU/ml suspension in TSB, microtiter plate, 25°C 48 h, OD 600 nm; three replicates, two experimental replicates
Description: as §1, §2

[6] = test system: Erwinia amylovora PMV6076 (Ea); test: In vitro growth inhibition (MIC), Erwinia amylovora; details: 10^8 bacterial CFU/ml suspension in TSB, microtiter plate, 25°C 48 h, OD 600 nm; three replicates, two experimental replicates; MIC = lowest concentration with no growth
Description: as §1, §2

| Compound | Phytotoxicity at 150 μM (inoculation): lesion diameter (tobacco leaves) | Phytotoxicity (germination): minimal peptide concentration causing significant alteration of shoot length (rice Senia seeds) [µM] | Hemolytic activity at 150 μM, ratio between each peptide and the reference peptide BP100 [1] | Biocompatibility in acute oral toxicity tests (mice) | Effect on rice seedling development at high concentrations (rice Senia seeds) | Antimicrobial activity Dc, minimal inhibitory concentration (MIC) [2] [µM] | Hemolytic activity at 150 μM [3] [%] | Antimicrobial activity Xav, minimal inhibitory concentration (MIC) [4] [µM] | Antimicrobial activity Pss, minimal inhibitory concentration (MIC) [5] [µM] | Antimicrobial activity Ea, minimal inhibitory concentration (MIC) [6] [µM] | Lesions in tobacco leaves compared with BP100 and BP100 derivatives (tobacco leaves; inoculation of 50 to 250 μM, same doses, positive control) |
| --- | --- | --- | --- | --- | --- | --- | --- | --- | --- | --- | --- |
| CC[C@H](C)[C@H](NC(=O)[C@H](CCCCN)NC(=O)[C@H](CCCCN)NC(=O)[C@H](Cc1ccccc1)NC(=O)[C@H](CC(C)C)NC(=O)[C@H](CCCCN)NC(=O)[C@@H](N)CCCCN)C(=O)N[C@@H](CC(C)C)C(=O)N[C@@H](CCCCN)C(=O)N[C@@H](Cc1ccc(O)cc1)C(=O)N[C@@H](CC(C)C)C(=O)N[C@@H](CCCCN)C(=O)N[C@@H](CC(=O)O)C(=O)N[C@@H](CCC(=O)O)C(=O)N[C@@H](CC(C)C)C(N)=O [BP100.1] | 1.17 cm | 64 | <1 | – | – | – | – | – | – | – | – |
| CC[C@H](C)[C@H](NC(=O)[C@H](CC(C)C)NC(=O)[C@H](CCCCN)NC(=O)[C@H](Cc1ccc(O)cc1)NC(=O)[C@H](CC(C)C)NC(=O)[C@H](C)NC(=O)[C@@H]1CCCN1C(=O)CNC(=O)[C@H](C)NC(=O)[C@H](CC(C)C)NC(=O)[C@H](Cc1ccc(O)cc1)NC(=O)[C@H](CCCCN)NC(=O)[C@H](CC(C)C)NC(=O)[C@@H](NC(=O)[C@H](CCCCN)NC(=O)[C@H](CCCCN)NC(=O)[C@H](Cc1ccccc1)NC(=O)[C@H](CC(C)C)NC(=O)[C@H](CCCCN)NC(=O)[C@@H](N)CCCCN)[C@@H](C)CC)C(=O)N[C@@H](CCCCN)C(=O)N[C@@H](CCCCN)C(=O)N[C@@H](Cc1ccccc1)C(=O)N[C@@H](CC(C)C)C(=O)N[C@@H](CCCCN)C(=O)N[C@@H](CCCCN)C(=O)N[C@@H](CCCCN)C(=O)N[C@@H](CC(=O)O)C(=O)N[C@@H](CCC(=O)O)C(=O)N[C@@H](CC(C)C)C(N)=O [BP100.2i] | 1.32 ± 0.06^b cm | 16 | 4 | – | – | – | – | – | – | – | – |
| CC[C@H](C)[C@H](NC(=O)[C@H](CCCCN)NC(=O)[C@H](CCCCN)NC(=O)[C@H](Cc1ccccc1)NC(=O)[C@H](CC(C)C)NC(=O)[C@H](CCCCN)NC(=O)[C@@H](N)CCCCN)C(=O)N[C@@H](CC(C)C)C(=O)N[C@@H](CCCCN)C(=O)N[C@@H](Cc1ccc(O)cc1)C(=O)N[C@@H](CC(C)C)C(N)=O [BP100] | 0.90 ± 0.05^a cm | 64 | – | highly biocompatible | barely effected root growth but almost completely inhibited shoot development | 5 to 10 | 22.0 ± 2.8 | 5.0 to 10 | – | – | – |
| CC[C@H](C)[C@H](NC(=O)[C@H](CCCCN)NC(=O)[C@H](CCCCN)NC(=O)[C@H](Cc1ccccc1)NC(=O)[C@H](CC(C)C)NC(=O)[C@H](CCCCN)NC(=O)[C@@H](N)CCCCN)C(=O)N[C@@H](CC(C)C)C(=O)N[C@@H](CCCCN)C(=O)N[C@@H](Cc1ccc(O)cc1)C(=O)N[C@@H](CC(C)C)C(=O)O [unmodified BP100] | 0.80 ± 0.02^a cm | 64 | 1 | – | – | 10 to 20 | – | 10 to 20 | 5.0 to 10 | 5.0 to 10 | – |
| KKLFKKILKYLAGPAKKLFKKILKYLAGPAKKLFKKILKYLKDEL-NH2 (C-terminus assumed) [BP100.3] | 1.38 ± 0.04^b cm | 16 | 4 | – | – | – | – | – | – | – | – |
| KKLFKKILKYLAGPAKKLFKKILKYLKDEL-NH2 (C-terminus assumed) [BP100.2] | 1.15 cm | 32 | 3 | – | – | – | – | – | – | – | – |
| KKLFKKILKYLTTGLPALISAGPASILAPLGTTLYKLIKKFLKKKDEL-NH2 (C-terminus assumed) [BP100.2mi] | 1.46 ± 0.12^b cm | 16 | 5 | – | – | – | – | – | – | – | – |
| mellitin: highly cytotoxic, potent hemolytic natural AMP, 26 amino acids, positive control [reference compound] | – | – | – | – | predominantly inhibited root growth while allowing moderate shoot development | – | – | – | – | – | more severe lesions |
